In patent US20190240292A1, “METHODS OF ADMINISTERING HEPCIDIN” (priority 2016, published 2019):

Legend:
serum iron concentration = test: Serum iron levels in patients after hepcidin (Example 7); assay type: in vivo, human
Description: Serum iron levels were measured in six patients with sickle cell disease patients and hereditary hemochromatosis patients post administration of hepcidin. Serum iron levels were measured prior to hepcidin administration (baseline) as well as post hepcidin administration at 2 hours, 4 hours, 8 hours, 24 hours, 48 hours, and […]. Patients were divided into two cohorts, cohort 1 was administered 1 mg of hepcidin and cohort 2 was administered 5 mg of hepcidin. Cohort 1 comprised sickle cell patients 1001 and 1002 as well as hereditary hemochromatosis patient 1003, while cohort 2 comprised hereditary hemochromatosis patients 2001, 2002, and 2004. Percent change of serum iron concentration for individual patients and average percent changes for both cohorts are shown in FIGS. 6 and 7. On average, hepcidin administration decreased serum iron concentration over an 8 day period by 35-40% in both cohorts.

serum iron levels [1] = test: Subcutaneous hepcidin, effect on serum iron levels in mice (Example 1); assay type: in vivo; conditions: 50 μg subcutaneous, p<0.05
Description: A study was designed to evaluate the effect of subcutaneous doses of hepcidin on serum iron levels in mice (n=6-7/group).

[2] = based on animal data
[3] = Expanded acute study (NOAEL), single subcutaneous dose of hepcidin in dogs (Example 4); assay type: in vivo; conditions: for dose at which mixed cell infiltration in the administration site was found (microscopic): males and females
Description: Increased thickness in the administration site was observed on Day 4 at 50 mg/kg and on Day 15 at ≥25 mg/kg. Microscopic findings on Day 4 consisted of mixed cell infiltration in the administration site in males and females at ≥25 mg/kg, while on Day 15, microscopic findings at the administration site included mixed cell infiltration in males and females at ≥5 mg/kg, fibrosis in males at ≥25 mg/kg and in females at ≥5 mg/kg, and cystic space in males at 50 mg/kg and in females at ≥25 mg/kg.

serum ferritin = test: Serum ferritin in sickle cell disease and hereditary hemochromatosis patients after hepcidin (Example 5); assay type: in vivo, human; conditions: 8 days post administration
Description: Hepcidin administration lowered ferritin blood levels in sickle cell patients with high baseline ferritin. A 1 milligram bolus of hepcidin was administered subcutaneously to two male patients with sickle cell disease (patients 1001 and 1002). Serum ferritin concentrations were measured at baseline as well as eight days post administration of hepcidin. Ferritin blood levels were lower 8 days post hepcidin administration in both patients (FIG. 1). Percent changes in ferritin blood levels for patients 1001 and 1002 were −45% and −61%, respectively (FIG. 3).
Hepcidin was administered to three hereditary hemochromatosis patients with normal baseline serum ferritin concentrations. Hereditary hemochromatosis patient 1003 was administered 1 mg of hepcidin, while two other patients (2001 and 2002) were administered 5 mg of hepcidin. Ferritin blood levels were measured in all patients eight days post hepcidin administration (FIG. 2). Percent change in ferritin blood levels among patients 1003, 2001, and 2002 were 25%, −19%, and 18%, respectively (FIG. 3).

serum iron levels [4] = test: Subcutaneous hepcidin 50, 100, 200 μg, effect on serum iron levels in mice (Example 2); assay type: in vivo; conditions: for serum iron levels compared to vehicle: p<0.01
Description: A study was designed to evaluate doses of 50, 100, and 200 μg of hepcidin delivered subcutaneously and their effect on serum iron levels in mice (n=7/group). […] Conversely, 50 μg and 100 μg doses were elevated (p<0.01) compared to the vehicle at 24 hours post dose. The elevated levels of serum iron could be due to the system's reaction to the clearance of hepcidin. […] Mortality was likely related to the stress of the blood collection. Serum iron levels normalized 72 hours post dose.

serum iron levels [5] = test: Subcutaneous hepcidin 1, 5, 10, 50 mg, effect on serum iron levels in normal rats (Example 3); assay type: in vivo
Description: A study was designed to evaluate doses of 1, 5, 10, and 50 mg of hepcidin delivered subcutaneously and their effect on serum iron levels in normal rats (n=7/group). […] Tmax and Cmax were reached between 1 and 2 hours post dose for all dose groups, but the uptake between the high and mid dose were very similar at these time points. […] In the 5 mg dose, serum iron levels returned to pre-dose levels at 48 hours post dose.

[6] = Expanded acute study (NOAEL), hepcidin SC in Sprague Dawley rats (Example 4)
Description: A study was designed to evaluate doses of 5, 25, and 50 mg/kg of hepcidin (human equivalent dose of 0.8, 4, 8 mg/kg, respectively), delivered SC to Sprague Dawley rats (n=9/sex/group).

[7] = tested on: transferrin saturation (TSAT); test: Transferrin saturation (TSAT) in patients after hepcidin (Example 6); assay type: in vivo, human; conditions: for Transferrin saturation - percent change from baseline: eight days post administration
Description: Transferrin saturation (TSAT) was measured in patients described in Example 1. TSAT indicates the percent of iron-binding sites of transferrin that are occupied by iron, making TSAT an important tool in diagnosis and monitoring of blood disorders and disease. A one milligram bolus of hepcidin was administered to sickle cell disease patients 1001 and 1002 and hereditary hemochromatosis patient 1003, while patients 2001 and 2002 were administered 5 mg of hepcidin each. TSAT levels were measured eight days post hepcidin administration.

[8] = patient 1001, sickle cell disease, 1 mg
[9] = patient 1002, sickle cell disease, 1 mg
[10] = patient 1003, hereditary hemochromatosis, 1 mg
[11] = patient 2001, hereditary hemochromatosis, 5 mg
[12] = patient 2002, hereditary hemochromatosis, 5 mg
[13] = Sprague Dawley rats, 5, 25 and 50 mg/kg SC

CC[C@H](C)[C@@H]1NC(=O)[C@@H](NC(=O)[C@@H](NC(=O)[C@@H]2CCCN2C(=O)[C@H](Cc2ccccc2)NC(=O)[C@H](Cc2c[nH]cn2)NC(=O)[C@@H](NC(=O)[C@@H](N)CC(=O)O)[C@@H](C)O)[C@@H](C)CC)CSSC[C@@H](C(=O)N[C@@H](CCCCN)C(=O)N[C@H](C(=O)O)[C@@H](C)O)NC(=O)[C@@H]2CSSC[C@@H]3NC(=O)[C@@H]4CSSC[C@H](NC(=O)[C@H](Cc5ccccc5)NC1=O)C(=O)N[C@@H](CSSC[C@H](NC(=O)[C@H](CCCCN)NC(=O)[C@H](CO)NC(=O)[C@H](CCCNC(=N)N)NC(=O)[C@H](Cc1c[nH]cn1)NC3=O)C(=O)NCC(=O)N[C@@H](CCSC)C(=O)N2)C(=O)NCC(=O)N4 [hepcidin]
average decrease of serum iron concentration over an 8 day period (serum iron concentration; both cohorts (cohort 1: 1 mg; cohort 2: 5 mg)): 35-40%
efficacy in human subjects (serum iron concentration; doses of 1 mg and 5 mg hepcidin): display efficacy
Serum iron concentration, maximum observed percentage change from baseline (serum iron concentration; [8]): −6%
Serum iron concentration, percentage change from baseline 8 days after administration of hepcidin (serum iron concentration; [8]): −4%
Serum iron concentration, maximum observed percentage change from baseline (serum iron concentration; [9]): −69%
Serum iron concentration, percentage change from baseline 8 days after administration of hepcidin (serum iron concentration; [9]): −69%
Serum iron concentration, maximum observed percentage change from baseline (serum iron concentration; [10]): −37%
Serum iron concentration, percentage change from baseline 8 days after administration of hepcidin (serum iron concentration; [10]): −37%
Serum iron concentration, maximum observed percentage change from baseline (serum iron concentration; [11]): −53%
Serum iron concentration, percentage change from baseline 8 days after administration of hepcidin (serum iron concentration; [11]): −40%
Serum iron concentration, maximum observed percentage change from baseline (serum iron concentration; [12]): −24%
Serum iron concentration, percentage change from baseline 8 days after administration of hepcidin (serum iron concentration; [12]): −24%
Serum iron concentration, maximum observed percentage change from baseline (serum iron concentration; patient 2004, hereditary hemochromatosis, 5 mg): −35%
decrease in serum iron levels compared to vehicle (average) (serum iron levels [1]; 4 hours post dose): 40%
decrease in serum iron levels compared to vehicle (average) (serum iron levels [1]; 24 hours post dose): 15%
dose that may cause adverse effects in humans [2]: about 200 mg
NOAEL at 15 Day ([3]; both sexes, dog, in vivo, sc, dogs, single subcutaneous dose): 5 mg/kg/day
other adverse reactions ([3]; dogs, 5, 25 and 50 mg/kg single subcutaneous dose): hunched posture, soft feces, gross pathology finding of “thick,” and subcutaneous fibrosis, mixed cell infiltration, and cysts present at recovery period
dose at which increased thickness in the administration site was observed ([3]; dogs, Day 4): 50 mg/kg
dose at which increased thickness in the administration site was observed ([3]; dogs, Day 15): ≥ 25 mg/kg
dose at which cystic space at the administration site was found (microscopic) ([3]; dogs, females, Day 15): ≥ 25 mg/kg
dose at which fibrosis at the administration site was found (microscopic) ([3]; dogs, females, Day 15): ≥ 5 mg/kg
dose at which mixed cell infiltration in the administration site was found (microscopic) ([3]; dogs, Day 4): ≥ 25 mg/kg
dose at which mixed cell infiltration in the administration site was found (microscopic) ([3]; dogs, Day 15): ≥ 5 mg/kg
dose at which cystic space at the administration site was found (microscopic) ([3]; dogs, males, Day 15): 50 mg/kg
dose at which fibrosis at the administration site was found (microscopic) ([3]; dogs, males, Day 15): ≥ 25 mg/kg
neutrophils and fibrinogen levels ([3]; dogs, up to Day 4, ≥25 mg/kg/day dose groups, not considered serious): temporary increases
percent change in ferritin blood levels (serum ferritin; patient 1001, sickle cell disease, 1 mg subcutaneous bolus): −45%
percent change in ferritin blood levels (serum ferritin; patient 1002, sickle cell disease, 1 mg subcutaneous bolus): −61%
percent change in ferritin blood levels (serum ferritin; patient 1003, hereditary hemochromatosis, normal baseline ferritin, 1 mg): 25%
percent change in ferritin blood levels (serum ferritin; patient 2001, hereditary hemochromatosis, normal baseline ferritin, 5 mg): −19%
percent change in ferritin blood levels (serum ferritin; patient 2002, hereditary hemochromatosis, normal baseline ferritin, 5 mg): 18%
ferritin blood levels versus baseline (serum ferritin; sickle cell disease patients 1001 and 1002 (high baseline ferritin), 1 mg subcutaneous bolus): lower
serum iron levels compared to vehicle (serum iron levels [4]; mice, 50 μg and 100 μg subcutaneous, 24 hours post dose): elevated
serum iron levels compared to vehicle (serum iron levels [4]; mice, 50, 100 and 200 μg subcutaneous, 4 hours post dose): significant decrease
time post dose at which serum iron levels normalized (serum iron levels [4]; mice, subcutaneous): 72 h
mortality (serum iron levels [4]; mice, following the 4-hour blood collection, likely related to stress of blood collection): One mouse died
time post dose at which serum iron levels returned to pre-dose levels (serum iron levels [5]; 5 mg subcutaneous): 48 h
return of serum iron levels to pre-dose levels (serum iron levels [5]; 10 mg and 50 mg subcutaneous, 72 hours post dose): did not return to pre-dose levels
effect on serum iron levels at 72 hours (serum iron levels [5]; 50 mg subcutaneous): still demonstrated an effect
serum iron levels (serum iron levels [5]; subcutaneous, all dose levels (1, 5, 10, 50 mg)): significant decrease
time post dose of lowest serum iron concentrations (serum iron levels [5]; subcutaneous, all three doses): 4 h
lethargy (serum iron levels [5]; subcutaneous, any dose level): No lethargy was observed
adverse effects [6, 13]: No unexpected adverse effects were observed
food consumption and body weight gain [6, 13]: non-adverse, dose-independent, reductions
injection site finding [6, 13]: induration
reticulocytes and iron concentration [6, 13]: dose-dependent reversible decreases
unsaturated iron binding capacity [6, 13]: increased
average serum iron levels compared to vehicle and pre-dose levels ([6]; Sprague Dawley rats, 5, 25 and 50 mg/kg SC, all doses): significantly decreased
time post dose of lowest serum iron level ([6]; Sprague Dawley rats, 5, 25 and 50 mg/kg SC, all three doses): 4 h
NOAEL ([6]; both, Sprague Dawley, rat, in vivo, sc): 50 mg/kg/day
TSAT at day eight versus baseline ([7]; all patients (1001, 1002, 1003 at 1 mg; 2001, 2002 at 5 mg)): percent decrease
Transferrin saturation - percent change from baseline [7, 8]: −19%
Transferrin saturation - percent change from baseline [7, 9]: −62%
Transferrin saturation - percent change from baseline [7, 10]: −27%
Transferrin saturation - percent change from baseline [7, 11]: −26%
Transferrin saturation - percent change from baseline [7, 12]: −40%
